According to ChEMBL document CHEMBL3244418, “Synthesis and central nervous system activity of quinazolones related to 2-methyl-3-(o-tolyl)-4(3H)-quinazolone (methaqualone)” (J Med Chem, 1977):

Key:
[1] = tested on: Mus musculus; assay: Hypnotic activity in ip dosed CFLP mouse assessed as loss of righting reflex; format: functional
[2] = tested on: Mus musculus; assay: Hypnotic activity in ip dosed CFLP mouse after 30 mins by rotary drum test; format: functional; conditions: 0.5 h
[3] = tested on: Mus musculus; assay: Anticonvulsant activity in ip dosed CFLP mouse assessed as inhibition of maximum electroshock-induced seizure; format: functional
[4] = tested on: Mus musculus; assay: Anticonvulsant activity in ip dosed CFLP mouse assessed as inhibition of pentylenetetrazole-induced seizure; format: functional
[5] = tested on: Mus musculus; assay: […] activity in po dosed CFLP mouse assessed as inhibition of benzoquinone-induced writhing; format: functional
[6] = Chemical stability of the compound assessed as methaqualone/sulfur/disulfide formation; format: physicochemical

SMILES | ED50 [1] [mg/kg] | ED50 [2] [mg/kg] | ED50 [3] [mg/kg] | ED50 [4] [mg/kg] | ED50 [5] [mg/kg] | Stability [6]
Br.C/N=C(\NC)SCc1nc2ccccc2c(=O)n1-c1ccccc1C | 100 | 32 | 25 | 23 | 51 | –
Br.CCCC/N=C(\NCCCC)SCc1nc2ccccc2c(=O)n1-c1ccccc1C | > 100 | 40 | > 40 | > 40 | 200 | –
Br.Cc1ccc([N+](=O)[O-])cc1-n1c(CSC(=N)N)nc2ccccc2c1=O | > 400 | – | – | – | > 200 | –
Br.Cc1ccccc1-n1c(CS/C(N)=N/N)nc2ccccc2c1=O | 100 | 15.5 | 35 | 23 | – | –
Br.Cc1ccccc1-n1c(CSC2=NCCCN2)nc2ccccc2c1=O | 200 | 39 | 50 | – | 170 | –
Br.C/N=C(/NC)SCc1nc2ccccc2c(=O)n1-c1ccccc1Cl | 150 | 27 | 30 | 40 | 200 | –
Br.C/N=C(\NC)SCc1nc2ccccc2c(=O)n1-c1ccccc1 | > 400 | > 50 | 40 | 50 | 200 | –
Br.N=C(N)SCc1nc2ccccc2c(=O)n1-c1ccccc1F | 400 | 43 | 38 | 75 | 100 | –
Br.C/N=C(\NC)SCc1nc2ccccc2c(=O)n1-c1ccccc1F | > 400 | 54 | 45 | > 50 | > 50 | –
Br.C/N=C(\NC)SCc1nc2ccccc2c(=O)n1-c1cc([N+](=O)[O-])ccc1C | > 50 | > 10 | > 10 | > 10 | > 10 | –
Br.Cc1c(Cl)cccc1-n1c(CSC(=N)N)nc2ccccc2c1=O | 400 | 57 | 42 | – | 200 | –
Br.Cc1ccccc1-n1c(CSC2=NCCN2)nc2ccccc2c1=O | 60 | 42 | 44 | 24 | > 50 | –
Br.O=c1c2ccccc2nc(CSC2=NCCN2)n1-c1ccccc1Cl | 50 | 12 | 18 | 25 | – | –
Br.O=c1c2ccccc2nc(CSC2=NCCN2)n1-c1ccccc1F | 200 | 32 | 37.5 | 100 | 90 | –
Br.O=c1c2ccccc2nc(CSC2=NCCN2)n1-c1ccccc1 | 200 | > 50 | 50 | > 50 | 50 | –
Br.Cc1ccc([N+](=O)[O-])cc1-n1c(CSC2=NCCN2)nc2ccccc2c1=O | > 400 | 86 | 100 | 150 | > 200 | –
Br.O=c1c2ccccc2nc(CSC2=NCCN2)n1-c1ccc(Cl)cc1 | > 200 | 47 | 35 | 37.5 | > 75 | –
Br.Cc1c(Cl)cccc1-n1c(CSC2=NCCN2)nc2ccccc2c1=O | 80 | > 25 | > 25 | 25 | – | –
COc1ccccc1-n1c(CS)nc2ccccc2c1=O | – | – | – | – | – | Unstable
Cc1ccccc1-n1c(C)nc2ccccc2c1=O [METHAQUALONE] | 96 | 30 | 48 | 14 | 36 | –
